In patent US12534748B2, “Engineered beta-subunit of tryptophan synthase for production of non-canonical amino acids” (California Institute of Technology, priority 2015, dated 2026):

Molecular target: T1, PfTrpB^2B9 (Pyrococcus furiosus, UniProt Q8U093, E17G/F274S/F95L/I16V/I68V/T292S/T321A/V384A)
T1 construct: made in house; host or cells: E. coli BL21 E. cloni Express
Assay: TTN of β-substitution reaction with L-Thr with different nucleophiles
Type: biochemical
Settings: for TTN: LC-MS
Method: Total Turnover Number (TTN) determination. Measurements were made using HPLC and LC-MS instruments. The amount of Trp formed was measured at 280 nm using a standard curve with trichlorobenzene as internal standard. […] This method is insensitive to loading volume and results agreed with measurements using a standard curve. […] This same technique was used to determine the TTN of the PfTrpB^2B9 reaction with different nucleophiles. […] Reactions were set up in triplicate using a total volume of 150 μL with 25 mM nucleophile and 250 mM L-Thr in 200 mM potassium phosphate pH 8.0 in borosilicate glass vials, as plastics can absorb indoles at high temperatures. Before addition of enzyme, all reagents were transferred into a Coy anaerobic chamber with <1 ppm O2 to rapidly exchange the atmosphere in the headspace of the vials to 95/5% N2/H2, which limits competing non-catalytic oxidation of indoles. Enzyme was added in the anaerobic environment with varied catalyst loading to ensure a robust product signal in subsequent analysis. Reaction vessels were capped before being removed from the anaerobic chamber and incubated in a 75° C. water bath for 24 hours. Reactions were quenched the next day by addition of 1 volume (150 μL) of 100% ACN, mixing, and allowing to rest at room temperature for 10 min. Quenched solutions were then diluted 5-fold with 40% ACN in water and analyzed via LC-MS. In all cases, auxiliary peaks that would indicate non-catalytic degradation of substrate were present at only low levels, contributing to <1% of the total integration signal for a given wavelength. For 7-azaindole, a second peak with m/z=220 was observed that was also found in larger scale reactions and whose properties are consistent with an N-alkylated product.
With these reaction conditions in hand, a characterization of the substrate scope of the reaction with Thr was performed. A small panel of indole-like nucleophiles were screened for reaction with PfTrpB^0B2 and Ser, and a significant boosts in activity was observed. This was expanded on this panel of nucleophiles and tests for activity with PfTrpB^2B9 using an excess of Thr was performed. Reactions were run to intermediate yield to determine the TTN with a given nucleophile and the identity of the products was established with a separate preparative-scale reaction using 100 mM nucleophile, 1.0 M Thr, and 0.02-0.25 mol % PfTrpB^2B9 catalyst. […] To probe the role of electronic effects on the C—C bond forming step, activity was tested with 4-fluoro and 5-fluoroindole, which are more closely isosteric with indole but have decreased electron density in the π-system. Product formation with each substrate and 3.4-fold decreased TTN with the 4-fluoro substrate was observed, which is more electron withdrawing at C-3 than the 5-fluoro substituent. The increased steric constraints of the activity site were again clear, as no activity with the 5-chloro-, 5-bromo, and 6-hydroxyindoles, which undergo reaction with Ser, was observed. […] This regioselectivity is well known with the indazole, which we found reacts exclusively to form the N-alkylated product. […] Inclusion of DTT reduced this side reaction.

[1] = 25 mM nucleophile, 250 mM L-Thr, 24 hour reaction at 75° C.

T1 sequence (Q8U093 other isoform, or with tags, fused parts or gaps I16V/E17G/I68V/F95L/F274S/T292S/T321A/V384A): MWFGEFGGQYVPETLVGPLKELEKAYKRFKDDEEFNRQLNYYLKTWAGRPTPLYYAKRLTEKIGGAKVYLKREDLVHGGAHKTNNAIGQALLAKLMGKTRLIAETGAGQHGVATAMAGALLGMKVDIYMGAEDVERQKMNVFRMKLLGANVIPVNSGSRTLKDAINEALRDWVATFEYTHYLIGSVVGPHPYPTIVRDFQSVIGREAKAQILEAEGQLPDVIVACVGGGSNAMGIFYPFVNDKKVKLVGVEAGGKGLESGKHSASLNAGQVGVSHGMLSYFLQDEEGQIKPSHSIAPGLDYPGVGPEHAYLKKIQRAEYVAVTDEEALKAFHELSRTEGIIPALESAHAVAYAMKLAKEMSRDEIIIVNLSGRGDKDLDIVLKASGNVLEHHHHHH

Row | SMILES | reactivity of nucleophile with PfTrpB^2B9 and excess Thr | TTN [1] | other results
1 | SCc1ccccc1 [benzyl mercaptan] | low turnover |  | 
2 | Cc1ccc2cc[nH]c2c1 [6-Methylindole] | Good reactivity | 1100 ± 100 | 
3 | c1ccc2c(c1)CCN2 [indoline] | no product formation |  | 
4 | c1cnc2[nH]ccc2c1 [7-Azaindole] |  |  | TTN, C-alkylation [1]: C-alkylation-220 ± 40; TTN, N-alkylation [1]: N-alkylation-32 ± 3
5 | Sc1ccccc1 [thiophenol] | low turnover |  | 
6 | Fc1ccc2[nH]ccc2c1 [5-Fluoroindole] |  | 1300 ± 280 | 
7 | Cc1cc2ccccc2[nH]1 [2-Methylindole] | Good reactivity | 6400 ± 1400 | 
8 | Fc1cccc2[nH]ccc12 [4-Fluoroindole] |  | 378 ± 8 | decrease of TTN (4-fluoro versus 5-fluoro substrate): 3.4 fold
9 | c1ccc2[nH]ncc2c1 [Indazole] |  | 500 ± 40 | 
10 | c1ccc2[nH]ccc2c1 [Indole] |  | 8200 ± 1600 | 
